Data reported in patent publication US6656956B2, “Benzimidazole derivatives, processes for preparing them and their use as pharmaceutical compositions” (Boehringer Ingelheim Pharma KG, priority 2001, dated 2003).
pIC50: −log10 of the molar value. Counter-ions that a name gives are not always drawn.

Molecular target: T1, rh beta tryptase (Homo sapiens, UniProt Q15661)
T1 construct: purchased Promega
Test: tryptase inhibition in vitro test (cleavage of N-p-tosyl-Gly-Pro-Lys-para-nitroaniline, p-nitroaniline measured at 405 nm)
Assay type: biochemical
Settings: rh beta tryptase 0.91 U/ml, substrate 0.6 mM, Tris HCl buffer with calcium and heparin, pH 7.4, 37° C., 5 minutes incubation; read-out: Tryptase-inhibiting activity
In short: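 Chromogenic assay in 100 mM Tris HCl pH 7.4 with 5 mM calcium and […], 0.91 U/ml enzyme, 0.6 mM substrate. Compound preincubated 5 min, then p-nitroaniline at 405 nm after 5 min, 37° C. Screening at 10 μM as % inhibition; IC50 determined when inhibition exceeded 70%.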

T1 sequence (Q15661 31-275): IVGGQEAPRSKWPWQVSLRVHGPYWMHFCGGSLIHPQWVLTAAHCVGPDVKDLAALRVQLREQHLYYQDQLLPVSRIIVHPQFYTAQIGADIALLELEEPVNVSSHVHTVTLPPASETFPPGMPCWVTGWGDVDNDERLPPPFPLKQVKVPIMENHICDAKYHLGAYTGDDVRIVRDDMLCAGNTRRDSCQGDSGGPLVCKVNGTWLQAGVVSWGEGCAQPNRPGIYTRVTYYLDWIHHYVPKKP

SMILES | pIC50
CN(C(=O)CN1CCC(Nc2ccccc2)CC1)c1ccc2c(c1)nc(CCc1ccc(C(=N)N)cc1)n2C [Example 108, N-{2-[2-(4-Amidinophenyl)-ethyl]-1-methyl-benzimidazol-5-yl}-N-methyl-2-[4-(phenylamino)-piperid-1-yl]-acetamide, dihydrochloride] | 7.52 to 8.40
Cn1c(CCc2ccc(C(=N)N)cc2)nc2cc(N(Cc3cccc4ccccc34)C(=O)Nc3ccccc3)ccc21 [Example 72, N-{2-[2-(4-Amidinophenyl)-ethyl]-1-methyl-benzimidazol-5-yl}-N-[naphth-1-ylmethyl]-N′-phenyl-urea, hydrochloride] | 6.00 to 7.51
COc1ccc(NC2CCN(CC(=O)N(Cc3cccc4ccccc34)c3ccc4c(c3)nc(CCc3ccc(C(=N)N)cc3)n4C)CC2)cc1 [Example 14, N-{2-[2-(4-Amidinophenyl)-ethyl]-1-methyl-benzimidazol-5-yl}-N-[naphth-1-ylmethyl]-2-[4-(4-methoxyphenylamino)-piperid-1-yl]-acetamide, dihydrochloride] | 7.52 to 8.40
Cn1c(CCc2ccc(C(=N)N)cc2)nc2cc(N(Cc3cccc4ccccc34)C(=O)CN3CCC(Nc4ccc(Cl)cc4)CC3)ccc21 [Example 10, N-{2-[2-(4-Amidinophenyl)-ethyl]-1-methyl-benzimidazol-5-yl}-N-[naphth-1-ylmethyl]-2-[4-(4-chlorophenylamino)-piperid-1-yl]-acetamide, dihydrochloride] | 8.52 to 9.30
CN(C(=O)CN1CCC(Nc2ccc(F)cc2Cl)CC1)c1ccc2c(c1)nc(CCc1ccc(C(=N)N)cc1)n2C [Example 33, N-{2-[2-(4-Amidinophenyl)-ethyl]-1-methyl-benzimidazol-5-yl}-N-methyl-2-[4-(2-chloro-4-fluorophenylamino)-piperid-1-yl]-acetamide, dihydrochloride] | 8.52 to 9.30
Cn1c(CCc2ccc(C(=N)N)cc2)nc2cc(N(Cc3cccc4ccccc34)C(=O)CN3CCC(NC(=O)c4ccccn4)CC3)ccc21 [Example 7, N-{2-[2-(4-Amidinophenyl)-ethyl]-1-methyl-benzimidazol-5-yl}-N-[naphth-1-ylmethyl]-2-[4-(2-pyridylcarboxylic acid amide)-piperid-1-yl]-acetamide, dihydrochloride] | 7.52 to 8.40
CN(C(=O)CN1CCC(NCc2ccccn2)CC1)c1ccc2c(c1)nc(CCc1ccc(C(=N)N)cc1)n2C [Example 29, N-{2-[2-(4-Amidinophenyl)-ethyl]-1-methyl-benzimidazol-5-yl}-N-methyl-2-[4-(2-pyridylmethylamino)-piperid-1-yl]-acetamide, dihydrochloride] | 6.00 to 7.51
